Test results from US20230339851A1, “CXCR6 SULFONAMIDE COMPOUNDS” (CHEMOCENTRYX, INC., priority 2022, published 2023).

Target: T1, human CXCR6 (Homo sapiens, UniProt O00574)
T1 construct: expressed in transfected cells
Test: Radioligand Binding Assay (125I-CXCL16 displacement)
Conditions: L1.2 cells stably transfected with human CXCR6 cDNA, 0.1 nM 125I-CXCL16, 4° C., three-hour incubation; read-out: Potency (IC50)
Protocol: L1.2 cells stably transfected with human CXCR6 cDNA ([…]) were incubated at 4° C. in HBSS containing 0.1 % BSA and 0.1 nM of ^125I-CXCL16 plus various concentrations of Compound. Following a three-hour incubation period, cells were aspirated onto polyethyleneimine-treated GF/B glass fiber filters (PerkinElmer, Waltham, MA) with a cell harvester (Tomtec, Hamden, CT) and washed twice with washing buffer (25 mM Hepes, 500 mM NaCl, 1 mM CaCI2, 5 mM MgCI2, pH 7.1). Fifty µl of MicroScint-20 (PerkinElmer, Waltham, MA) was added to each well of the filters, and radioactive emissions (cpm) were measured on a Packard TopCount Scintillation counter (PerkinElmer, Waltham, MA). IC50 values were calculated with GraphPad Prism using 3 parameter nonlinear regression. […]

T1 sequence (O00574 whole entry): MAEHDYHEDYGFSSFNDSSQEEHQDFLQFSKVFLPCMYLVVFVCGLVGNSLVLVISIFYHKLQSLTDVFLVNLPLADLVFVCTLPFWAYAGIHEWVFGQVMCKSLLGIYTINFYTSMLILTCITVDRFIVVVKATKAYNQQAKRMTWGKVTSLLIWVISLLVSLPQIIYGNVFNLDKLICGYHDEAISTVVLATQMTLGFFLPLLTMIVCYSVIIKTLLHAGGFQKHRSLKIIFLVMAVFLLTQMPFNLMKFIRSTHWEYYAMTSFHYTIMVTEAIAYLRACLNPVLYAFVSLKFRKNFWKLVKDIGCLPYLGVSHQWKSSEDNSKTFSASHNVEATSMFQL

Compound	IC50
CCOc1cc(NC(=O)CC(O)C2CCOCC2)ccc1S(=O)(=O)Nc1cccc(OC(F)(F)F)c1 (centres unmarked) [Example 1.401]	0.2 to 0.75 µM
CCOc1cc(NC(=O)C(C(=O)O)C2CCC2)ccc1S(=O)(=O)Nc1cccc(OC(F)(F)F)c1 (centres unmarked) [Example 1.218]	≤ 0.2 µM
CCOc1cc(NC(=O)[C@@H](N)C2CCCC2)ccc1S(=O)(=O)Nc1cccc(OC(F)(F)F)c1 [Example 1.463]	≤ 0.2 µM
CCOc1cc(NC(=O)[C@@H](NS(C)(=O)=O)C(C)CC)ccc1S(=O)(=O)Nc1cccc(OC(F)(F)F)c1 (some centres unmarked) [Example 1.367]	2 to 20 µM
CCOc1cc(NC(=O)C2CCOC2)ccc1S(=O)(=O)Nc1cccc(OC(F)(F)F)c1 (centres unmarked) [Example 1.058]	0.2 to 0.75 µM
CCOc1cc(NC(=O)[C@@H](O)C(C)C)ccc1S(=O)(=O)Nc1cccc(Cl)c1C [Example 1.570]	0.75 to 2 µM
CCOc1cc(NC(=O)[C@@H](CO)C(C)C)ccc1S(=O)(=O)Nc1ccc2c(c1)OC(F)(F)O2 [Example 1.050]	0.2 to 0.75 µM
CCOc1cc(NC(=O)c2ccc(N(C)C)cc2)ccc1S(=O)(=O)Nc1cccc(OC(F)(F)F)c1 [Example 1.315]	0.75 to 2 µM
CCOc1cc(NC(=O)C(CCO)C(F)(F)F)ccc1S(=O)(=O)Nc1cccc(OC(F)(F)F)c1 (centres unmarked) [Example 1.335]	≤ 0.2 µM
COc1ccc(NS(=O)(=O)c2ccc(NC(=O)c3ccnn3C)cc2OC)cc1C(F)(F)F [Example 1.580]	0.2 to 0.75 µM
CCOc1cc(NC(=O)C(CCO)c2ccccc2)ccc1S(=O)(=O)Nc1cccc(OC(F)(F)F)c1 (centres unmarked) [Example 1.047]	≤ 0.2 µM
CCOc1cc(NC(C)=O)ccc1S(=O)(=O)Nc1cccc(C(F)(F)F)c1 [Example 1.212]	2 to 20 µM
CCOc1cc(NC(=O)[C@@H](CO)C(C)C)ccc1S(=O)(=O)Nc1ccc(C)c(OC(F)(F)F)c1 [Example 1.342]	≤ 0.2 µM
COc1cc(NC(=O)C2NC3CCC2C3)ccc1S(=O)(=O)Nc1cccc(C(F)(F)F)c1 (centres unmarked) [Example 1.472]	2 to 20 µM
CCN[C@H](C(=O)Nc1ccc(S(=O)(=O)Nc2ccc(C)c(OC(F)(F)F)c2)c(OCC)c1)C(C)C [Example 1.296]	≤ 0.2 µM
CCOc1cc(NC(=O)[C@H](CO)C(C)C)ccc1S(=O)(=O)Nc1cccc(OC(F)(F)F)c1 [Example 1.139]	≤ 0.2 µM
CCOc1cc(NC(=O)[C@H]2CCCC[C@H]2O)ccc1S(=O)(=O)Nc1cccc(OC(F)(F)F)c1 [Example 1.432]	≤ 0.2 µM
CCOc1cc(NC(=O)[C@@H](O)c2ccccc2Cl)ccc1S(=O)(=O)Nc1cccc(OC(F)(F)F)c1 [Example 1.276]	≤ 0.2 µM
CCOc1cc(NC(=O)[C@@H](O)C(C)C)ccc1S(=O)(=O)Nc1ccc(C)c(OC(F)(F)F)c1 [Example 1.205]	≤ 0.2 µM
CCOc1cc(NC(=O)[C@@H](N)c2ccccc2)ccc1S(=O)(=O)Nc1ccc(F)c(OC(F)(F)F)c1 [Example 1.560]	≤ 0.2 µM
CC(C)[C@H](CO)C(=O)Nc1ccc(S(=O)(=O)Nc2cccc(OC(F)(F)F)c2)c(Cl)c1 [Example 1.085]	≤ 0.2 µM
CCOc1cc(NC(=O)C2CC=CC[C@H]2O)ccc1S(=O)(=O)Nc1ccc(C)c(OC(F)(F)F)c1 (some centres unmarked) [Example 1.029]	≤ 0.2 µM
CCOc1cc(NC(=O)[C@@H](O)Cc2ccccc2)ccc1S(=O)(=O)Nc1cccc(OC(F)(F)F)c1 [Example 1.207]	≤ 0.2 µM

Compound	IC50
CCOc1cc(NC(=O)[C@@H](O)C(C)C)ccc1S(=O)(=O)Nc1ccc(C)c(CC)c1 [Example 1.402]	≤ 0.2 µM
COc1cc(NC(=O)C2CC3C=CC2O3)ccc1S(=O)(=O)Nc1cccc(C(F)(F)F)c1 (centres unmarked) [Example 1.565]	0.2 to 0.75 µM
CCOc1cc(NC(=O)C(O)c2cccnc2)ccc1S(=O)(=O)Nc1cccc(OC(F)(F)F)c1 (centres unmarked) [Example 1.493]	0.75 to 2 µM
CCOc1cc(NC(=O)c2ccc(=O)n(C)c2)ccc1S(=O)(=O)Nc1cccc(OC(F)(F)F)c1 [Example 1.515]	0.75 to 2 µM
CCOc1cc(NC(=O)[C@@H](O)C(C)C)ccc1S(=O)(=O)Nc1ccc(C)c(C(F)(F)F)c1 [Example 1.363]	≤ 0.2 µM
COc1cc(NC(=O)c2ccnn2C)ccc1S(=O)(=O)Nc1cc(C(F)(F)F)cc(C(F)(F)F)c1 [Example 1.112]	2 to 20 µM
COc1cc(NC(C)=O)cc(F)c1S(=O)(=O)Nc1cccc(OC(F)(F)F)c1 [Example 1.537]	2 to 20 µM
CCOc1cc(NC(=O)C(c2ccccc2)C(C)O)ccc1S(=O)(=O)Nc1cccc(OC(F)(F)F)c1 (centres unmarked) [Example 1.446]	≤ 0.2 µM
CCOc1cc(NC(=O)[C@@H](NC(=O)OC(C)(C)C)c2ccccc2)ccc1S(=O)(=O)Nc1cccc(OC(F)(F)F)c1 [Example 1.429]	0.2 to 0.75 µM
CCOc1cc(NC(=O)[C@@H](NC=O)C(C)C)ccc1S(=O)(=O)Nc1cccc(OC(F)(F)F)c1 [Example 1.298]	≤ 0.2 µM
COc1cc(NC(=O)C2=C(C)OCCC2)ccc1S(=O)(=O)Nc1cccc(OC(F)(F)F)c1 [Example 1.525]	0.2 to 0.75 µM
CCOc1cc(NC(=O)C2CCCC(O)C2)ccc1S(=O)(=O)Nc1cccc(OC(F)(F)F)c1 (centres unmarked) [Example 1.545]	0.75 to 2 µM
Cc1cc(NC(=O)c2cccc(C(F)(F)F)c2)ccc1S(=O)(=O)Nc1cccc(C(F)(F)F)c1 [Example 1.443]	2 to 20 µM
CCOc1cc(NC(=O)CCOC)ccc1S(=O)(=O)Nc1cccc(OC(F)(F)F)c1 [Example 1.186]	0.75 to 2 µM
Cc1cc(NC(=O)c2ccc(Cl)cc2)ccc1S(=O)(=O)Nc1cccc(C(F)(F)F)c1 [Example 1.407]	0.75 to 2 µM
COc1cc(NC(=O)[C@@H](CO)c2ccccc2)ccc1S(=O)(=O)Nc1cccc(OC(F)(F)F)c1 [Example 1.235]	0.2 to 0.75 µM
CCOc1cc(NC(=O)C2CCC(O)CC2)ccc1S(=O)(=O)Nc1cccc(OC(F)(F)F)c1 (centres unmarked) [Example 1.183]	0.2 to 0.75 µM
CCCc1cc(C(=O)Nc2ccc(S(=O)(=O)Nc3cccc(C(F)(F)F)c3)c(OC)c2)n(C)n1 [Example 1.578]	0.75 to 2 µM
CCOc1cc(NC(=O)[C@@H](O)C(C)C)ccc1S(=O)(=O)Nc1ccc(Cl)c(Cl)c1 [Example 1.375]	≤ 0.2 µM
C=Cc1cc(NS(=O)(=O)c2ccc(NC(=O)[C@@H](O)C(C)C)cc2OCC)ccc1C [Example 1.286]	≤ 0.2 µM
Cc1cc(NC(=O)c2cnco2)ccc1S(=O)(=O)Nc1cccc(C(F)(F)F)c1 [Example 1.252]	0.75 to 2 µM
CCOc1cc(NC(=O)C(CNC(C)=O)c2ccccc2)ccc1S(=O)(=O)Nc1cccc(OC(F)(F)F)c1 (centres unmarked) [Example 1.386]	≤ 0.2 µM
CCCOc1cc(NC(=O)[C@@H](O)C(C)C)ccc1S(=O)(=O)Nc1cccc(OC(F)(F)F)c1 [Example 1.034]	≤ 0.2 µM

Compound	IC50
Cc1cc(NC(=O)c2cccnc2C)ccc1S(=O)(=O)Nc1cccc(C(F)(F)F)c1 [Example 1.306]	0.75 to 2 µM
CCOC(=O)[C@H]1CC=CC[C@@H]1C(=O)Nc1ccc(S(=O)(=O)Nc2cccc(OC(F)(F)F)c2)c(OCC)c1 [Example 1.138]	≤ 0.2 µM
CCOc1cc(NC(=O)[C@@H](O)C(C)C)ccc1S(=O)(=O)Nc1ccc(Cl)cc1 [Example 1.398]	0.2 to 0.75 µM
CCOc1cc(NC(=O)[C@@H](O)C(C)C)ccc1S(=O)(=O)Nc1cccc(OC(F)(F)F)c1 [Example 1.105]	≤ 0.2 µM
CCOc1cc(NC(=O)CC(O)c2nccn2C)ccc1S(=O)(=O)Nc1cccc(OC(F)(F)F)c1 (centres unmarked) [Example 1.106]	2 to 20 µM
CCOc1cc(NC(=O)C2CCN(C)CC2)ccc1S(=O)(=O)Nc1cccc(OC(F)(F)F)c1 [Example 1.192]	2 to 20 µM
Cc1cc(NC(=O)c2ccc(F)cc2)ccc1S(=O)(=O)Nc1cccc(C(F)(F)F)c1 [Example 1.002]	0.2 to 0.75 µM
CCOc1cc(NC(=O)C2CCO[C@@H]2C)ccc1S(=O)(=O)Nc1cccc(OC(F)(F)F)c1 (mixture of isomers) [Example 1.137]	0.2 to 0.75 µM
CCc1cc(NC(=O)c2ccns2)ccc1S(=O)(=O)Nc1cccc(C(F)(F)F)c1 [Example 1.225]	0.2 to 0.75 µM
CCOc1cc(NC(=O)CC(C)(O)C(F)(F)F)ccc1S(=O)(=O)Nc1cccc(OC(F)(F)F)c1 (centres unmarked) [Example 1.512]	0.2 to 0.75 µM
COc1cc(NC(=O)[C@@H]2C=CCN2)ccc1S(=O)(=O)Nc1cccc(C(F)(F)F)c1 [Example 1.197]	0.75 to 2 µM
COc1cc(NC(=O)c2ccnn2C)ccc1S(=O)(=O)Nc1cccc(OC(C)C)c1 [Example 1.145]	0.75 to 2 µM
CCc1cc(NC(=O)[C@@H](CO)C2CC2)ccc1S(=O)(=O)Nc1cccc(OC(F)(F)F)c1 [Example 1.150]	≤ 0.2 µM
CCOc1cc(NC(=O)[C@@H](NS(C)(=O)=O)C(C)C)ccc1S(=O)(=O)Nc1cccc(OC(F)(F)F)c1 [Example 1.324]	≤ 0.2 µM
Cc1cc(NC(=O)C2CCN(C)CC2)ccc1S(=O)(=O)Nc1cccc(C(F)(F)F)c1 [Example 1.522]	2 to 20 µM
COc1cc(S(=O)(=O)Nc2cccc(C(F)(F)F)c2)c(C)cc1NC(C)=O [Example 1.354]	2 to 20 µM
CCOc1cc(NC(=O)[C@H]2CCOC[C@H]2C)ccc1S(=O)(=O)Nc1cccc(OC(F)(F)F)c1 (racemic) [Example 1.514]	≤ 0.2 µM
CC(=O)Nc1ccc(S(=O)(=O)Nc2cccc(C(F)(F)F)c2)c(Br)c1 [Example 1.130]	2 to 20 µM
CCOc1cc(NC(=O)[C@@H](N)c2ccccc2)ccc1S(=O)(=O)Nc1ccc(C)c(OC(F)(F)F)c1 [Example 1.462]	≤ 0.2 µM
CCOc1cc(NC(=O)C(C(=O)O)C2CCCC2)ccc1S(=O)(=O)Nc1cccc(OC(F)(F)F)c1 (centres unmarked) [Example 1.479]	≤ 0.2 µM
CCCOc1cc(NC(=O)[C@@H](CO)c2ccccc2)ccc1S(=O)(=O)Nc1cccc(CC(F)(F)F)c1 [Example 1.496]	≤ 0.2 µM
CCOc1cc(NC(=O)[C@@H](CO)C(C)C)ccc1S(=O)(=O)Nc1cccc(OC(F)F)c1 [Example 1.066]	≤ 0.2 µM
